Experiment [1] concerns human Jurkat T cell leukemia cells. Kind of experiment: Cytotoxicity to human Jurkat T cell leukemia cells, 3 days culture. Conditions: 72 h, concentration necessary to kill 50% of the cells, three days, OD570/650, read-out: TC50 (the source's name). The format is cell-based. The method, then: (A) The compounds prepared in Example 1 above were tested for biological activity by culturing human Jurkat T cell leukemia cells for three days at an initial density of 10^5 cells/ml in RPMI 1640+10% FBS (fetal bovine serum). Compounds of the invention were added, and the concentration necessary to kill 50% (TC50) of the cells was determined by OD570/650.

In experiment [2] the test system is CEM WT, CEM AB9228, MOLT-4, Jurkat, NALL-1, WI-L2, K562, and HL-60 cells. As to the kind of experiment: Cytotoxicity to various proliferating cell lines (average). The format is cell-based, human. Conditions: Homo sapiens, average TC50 over various proliferating cell lines; read-out: TC50 (the source's name). The method, then:
(§1) (B) Similarly, compounds of the invention were tested for their ability to kill CEM WT, CEM AB9228, MOLT-4, Jurkat, NALL-1, WI-L2, K562, and HL-60 cells.

For another experiment, the system named is proliferating cells. As to the kind of experiment: Ability of further compounds to kill proliferating cells (average). The settings on record: average TC50, proliferating cells; read-out: TC50 (the source's name). Type of experiment: cell-based. The method, then:
as §1
(C) Proceeding as described above, further compounds were tested for their ability to kill proliferating cells.

The test system of experiment [3] is tubulin. As to the kind of experiment: Inhibition of tubulin assembly. The format is biochemical, bovine. Conditions: 10 μM tubulin, 20 min incubation, 30° C.; read-out: GI50 inhibitory concentration (tubulin assembly). The method, then: To evaluate the effects of the TB compounds of the invention on tubulin, bovine brain tubulin (2.2 mg/ml) was incubated in PEM80 (80 mM K-PIPES, 1 mM MgCl2, 1 mM EGTA) containing 10% glycerol and 2 mM GTP for 30 minutes at 37° C. in the presence or absence of 20 μg/ml nocodazole, 1 mM paclitaxel, or TB compound no. IK-178 at various concentrations. Tubulin polymer was resolved from monomer by sedimentation through a cushion of 60% glycerol in PEM80 at 70,000 rpm for 30 min at 37° C. in a Beckman TLA100 rotor. A fraction of the supernatant was removed for analysis, the cushion washed and then aspirated, and the pellet resuspended in SDS-PAGE sample buffer. Equal proportions of the supernatant and the pellet were then resolved by SDS-PAGE and tubulin visualized by staining with Coomassie blue.
The quantitative assessment of drug inhibition of tubulin polymerization and evaluation of inhibition of [^3 H]colchicine binding to tubulin were then performed. […] Samples were placed on ice and GTP (0.4 mM) was added. Reaction mixtures were transferred to 0° C. cuvettes in Gilford 250 spectrophotometers, baselines were establishes/d, and the temperature was jumped to 30° C. with electronic temperature controllers (about 60 sec). The IC^50 was defined as the drug concentration required to inhibit extent of assembly after a 20 min incubation. […]

The test system of experiment [4] is tubulin. Kind of experiment: Inhibition of [3H]vinblastine binding to tubulin. More on the design: species or system bovine. The settings on record: single experiment. The method, then:
The TB compounds of the invention (as represented by TB compound IK-178), are nearly as potent as the strong tubulin assembly inhibitor, combretastatin A-4 (CS-A4). In particular, the GI^50 inhibitory concentration of CS-A4 was 1.2±0.03 μM (n=4), while that of TB compound IK-178 was 1.7±0.1 μM (n=3).

The next experiment deals with KB-3-1. Kind of experiment: Growth inhibition of KB-3-1 (wild type). The format is cell-based. Conditions: Homo sapiens, ±1 SD, n>5.
A further experiment relates to MES-SA/DX5. Kind of experiment: Growth inhibition of MES-SA/DX5 (MDR). Type of experiment: cell-based. The settings on record: Homo sapiens, ±1 SD, n>5.
A further experiment concerns MDA-MB-321. Kind of experiment: Growth inhibition of MDA-MB-321 (wild type). The format is cell-based. The settings on record: Homo sapiens, ±1 SD, n>5.
A further experiment has as its system HL-60. Kind of experiment: Growth inhibition of HL-60 (wild type). Type of experiment: cell-based. Conditions: Homo sapiens, ±1 SD, n>5.
Another experiment relates to KB-GRC-1 and MV522/Q6. As to the kind of experiment: MTT proliferation assay of mdr1 overexpressing transfectomas. Type of experiment: cell-based, human. The settings on record: 72 h.
Another experiment concerns MCF-7. Kind of experiment: Growth inhibition of MCF-7 (wild type). The format is cell-based. The settings on record: Homo sapiens, MCF7, ±1 SD, n>5.
In the next experiment the test system is MV522. Kind of experiment: Growth inhibition of MV522 (wild type). Type of experiment: cell-based. Conditions: Homo sapiens, ±1 SD, n>5.
The next experiment deals with MES-SA. As to the kind of experiment: Growth inhibition of MES-SA (wild type). The format is cell-based. Conditions: Homo sapiens, ±1 SD, n>5.
A further experiment has as its system MCF-7/ADR. As to the kind of experiment: Growth inhibition of MCF-7/ADR (MDR). The format is cell-based. Conditions: Homo sapiens, NCI/ADR-RES, ±1 SD, n>5.
The next experiment has as its system MV522/Q6. As to the kind of experiment: Growth inhibition of MV522/Q6 (MDR). The format is cell-based. The settings on record: Homo sapiens, ±1 SD, n>5.
For another experiment, the system named is CEM/VLB100. Kind of experiment: Growth inhibition of CEM/VLB100 (MDR). Type of experiment: cell-based. Conditions: Homo sapiens, ±1 SD, n>5.
In another experiment the test system is MDA3-1/gp170. As to the kind of experiment: Growth inhibition of MDA3-1/gp170 (MDR). The settings on record: Homo sapiens, MDR1, ±1 SD, n>5. The format is cell-based.
The subject of the next experiment is CEM. Kind of experiment: Growth inhibition of CEM (wild type). The format is cell-based. The settings on record: Homo sapiens, CCRF-CEM, ±1 SD, n>5.
The next experiment has as its system HL-60/ADR. Kind of experiment: Growth inhibition of HL-60/ADR (MDR). Conditions: Homo sapiens, HL60/ADR, ±1 SD, n>5. Type of experiment: cell-based.
Experiment [5] deals with HL-60/ADR and MDF-7/ADR cells. Kind of experiment: MTT assay, visual comparison of cells with and without MDR (FIGS. 1 and 2). The format is cell-based, human. Conditions: 3 days.
In another experiment the test system is KB-GRC-1. As to the kind of experiment: Growth inhibition of KB-GRC-1 (MDR). Conditions: Homo sapiens, MDR1, ±1 SD, n>5. The format is cell-based.
For the next experiment, the system named is HL-60/ADR cells. As to the kind of experiment: Apoptosis of HL-60/ADR cells (FACS). The format is cell-based, human. The method, then: FACS analysis was performed to determine the influence of the TB compounds of the invention on growth cycling of cells (the analysis was performed on harvested cells, fixed in ice-cold 70% ethanol solution, then treated with 100 μg/ml of RNAse A and stained with 50 μg/ml propidium iodide for 1 h at 37° C. DNA content of the cells was analyzed by flow cytometry (Becton Dickinson FACScalibur), and the cell cycle distribution was calculated with the program ModFit LT 2.0 (Verity Software)).
First, the stage at which the TB compounds of the invention arrest growth of HL-60 and HL-60/ADR cells was determined by FACS analysis and caspase-3 activation as described above.

The subject of another experiment is caspase-3 in HL-60 cells. Kind of experiment: Caspase-3 activation in HL-60 cells. Type of experiment: cell-based, human. Conditions: HL-60 cells.

For `COc1cc2c(cc1OC)C(=O)/C(=C/c1cc(Cl)cc(Cl)c1)C2` [5,6-dimethoxy-2-(3',5'-dichlorophenylmethylene)-1-indanone], the CC50 is 0.75 µM in experiment [1], 0.75 µM in [2] and 2 µM in the experiment on proliferating cells.
`COc1cc(C=C2Cc3cc(OC)c(OC)cc3C2=NO)cc(OC)c1` [5,6-dimethoxy-2-(3',5'-dimethoxyphenylmethylene)-1-hydroximinioindane]: the CC50 in [1] and in experiment [2] was 0.8 µM each time.
For `COc1cc(C=C2Cc3cc(OC)c(OC)cc3C2O)cc(OC)c1` (stereo not drawn) [5,6-dimethoxy-2-(3',5'-dimethoxyphenylmethylene)-1-hydroxyindane], in experiment [1], the CC50 came to 0.75 µM.
Regarding `COc1cc(C=C2Cc3cc(OC)c(OC)cc3C2=O)cc(OC)c1` [5,6-dimethoxy-2-(3',5'-dimethoxyphenylmethylene)-1-indanone], the CC50 turned out to be 0.75 µM in [1], 0.75 µM in experiment [2] and 2 µM in the experiment with proliferating cells.
As to `COc1cc2c(cc1OC)C(=O)C(=Cc1cc(C)cc(C)c1)C2` [5,6-dimethoxy-2-(3',5'-dimethylphenylmethylene)-1-indanone], the values for the CC50 (in experiment [1]; in [2]; in the experiment with proliferating cells) were 0.075 µM, 0.075 µM and 0.081 µM, respectively.
`COc1cc2c(c(N)c1OC)C(=O)C(=Cc1cc(C)c(O)c(C)c1)C2` [5,6-dimethoxy-7-amino-2-(3',5'-dimethyl-4'-hydroxyphenylmethylene)-1-indanone]: the CC50 in experiment [2] amounted to 0.005 µM; in the experiment with proliferating cells, 0.0008 µM.
On to `COc1cc2c(c([N+](=O)[O-])c1OC)C(=O)/C(=C/c1cc(C)c(O)c(C)c1)C2` [5,6-dimethoxy-7-nitro-2-(3',5'-dimethyl-4'-hydroxyphenylmethylene)-1-indanone], for which the CC50 (in [2]; in the experiment on proliferating cells) was above 50 µM each time.
On to `COc1cc2c(c(NC(=O)C(=O)O)c1OC)C(=O)C(=Cc1cc(C)c(O)c(C)c1)C2` [5,6-dimethoxy-7-oxalylamino-2-(3',5'-dimethyl-4'-hydroxyphenylmethylene)-1-indanone], for which the results for the CC50 (in [2]; with proliferating cells) were 0.004 µM and 0.15 µM, respectively.
On to `COc1cc2c(cc1OC)C(=O)C(=Cc1cccc(OC)c1OC)CC2` [6,7-dimethoxy-2-(2',3'-dimethoxyphenylmethylene)-1-tetralone], for which the CC50 (in [2]; in the experiment with proliferating cells) was above 50 µM in each case.
On to `COc1ccc(C=C2CCc3cc(OC)c(OC)cc3C2=O)cc1OC` [6,7-dimethoxy-2-(3',4'-dimethoxyphenylmethylene)-1-tetralone], for which the CC50 (in experiment [2]; in the experiment on proliferating cells) was above 50 µM each time.
Turning to `COc1cc(/C=C2\CCc3cc(OC)c(OC)cc3C2=O)cc(OC)c1` [6,7-dimethoxy-2-(3',5'-dimethoxyphenylmethylene)-1-tetralone], the CC50 in experiment [1] was 5 µM; in experiment [2], 4 µM.
As for `COc1cc2c(cc1OC)C(=O)C(=Cc1ccc(O)cc1)CC2` [6,7-dimethoxy-2-(4'-hydroxyphenylmethylene)-1-tetralone], the CC50 (in experiment [2]; with proliferating cells) was 30 µM in each case.
`COc1ccc(C=C2CCc3cc(OC)c(OC)cc3C2=O)cc1` [6,7-dimethoxy-2-(4'-methoxyphenylmethylene)-1-tetralone]: the CC50 (in [2]; in the experiment with proliferating cells) was above 50 µM each time.
As to `COc1ccc(/C=C\c2cc(OC)c(OC)c(OC)c2)cc1O` [CS-A4, combretastatin A-4, reference compound], the GI50 in the experiment with tubulin [3] is 1.2 ± 0.03 µM. In the experiment with tubulin [4], the “inhibition of [3H]vinblastine binding to tubulin” value is “Neither agent inhibited”.
For the compound `CC(=O)O[C@H]1C(=O)[C@@]2(C)[C@H]([C@H](OC(=O)c3ccccc3)[C@]3(O)C[C@H](OC(=O)[C@H](O)[C@@H](NC(=O)c4ccccc4)c4ccccc4)C(C)=C1C3(C)C)[C@]1(OC(C)=O)CO[C@@H]1C[C@@H]2O` [Paclitaxel, paclitaxel, reference compound], the GI50 was 0.007 ± 0.003 µM in the experiment on KB-3-1; above 1 µM in the experiment with MES-SA/DX5; 0.05 ± 0.002 µM in the experiment with MDA-MB-321; below 0.001 µM in the experiment with HL-60; 0.05 ± 0.006 µM with MCF-7; 0.015 ± 0.004 µM in the experiment on MV522. In addition, the GI50 in the experiment on MES-SA is below 0.001 µM; with MCF-7/ADR, above 10 µM; in the experiment with MV522/Q6, 0.358 ± 0.008 µM; in the experiment with CEM/VLB100, 0.606 ± 0.02 µM; in the experiment on MDA3-1/gp170, above 1 µM; in the experiment on CEM, below 0.001 µM. The GI50 with HL-60/ADR and with KB-GRC-1 was above 1 µM each time. Further, the “sensitivity of transfectomas overexpressing mdr1” value in the experiment on KB-GRC-1 and MV522/Q6 is “resistant”. In addition, the “sensitivity with acquisition of MDR” value in [5] was “sensitivity to paclitaxel was lost”.
For `COc1cc2c(c(OC)c1OC)-c1ccc(OC)c(=O)cc1[C@@H](NC(C)=O)CC2` [colchicine, reference compound], the apoptosis entry with HL-60/ADR cells was “did not induce the apoptosis”. Further, the caspase-3 activity result with caspase-3 in HL-60 cells is recorded as “did not activate caspase-3”.

Source of the values: patent US6162810A, “Inadone and tetralone compounds for inhibiting cell proliferation” (The Regents of the University of California, priority 1998, dated 2000).
